From PMC3476531, “Synergy of Peptide and Sugar in O-GlcNAcase Substrate Recognition” (Chemistry & Biology, 2012) come the findings set out here.

Holding throughout (type): biochemical
In one assay the target is T1, hOGA Y69F (Homo sapiens, UniProt O60502, Y69F).
T1 construct: GST (N); made in house; host or cells: transiently transfected HEK293 cells
T1 sequence (O60502 1-916 Y69F): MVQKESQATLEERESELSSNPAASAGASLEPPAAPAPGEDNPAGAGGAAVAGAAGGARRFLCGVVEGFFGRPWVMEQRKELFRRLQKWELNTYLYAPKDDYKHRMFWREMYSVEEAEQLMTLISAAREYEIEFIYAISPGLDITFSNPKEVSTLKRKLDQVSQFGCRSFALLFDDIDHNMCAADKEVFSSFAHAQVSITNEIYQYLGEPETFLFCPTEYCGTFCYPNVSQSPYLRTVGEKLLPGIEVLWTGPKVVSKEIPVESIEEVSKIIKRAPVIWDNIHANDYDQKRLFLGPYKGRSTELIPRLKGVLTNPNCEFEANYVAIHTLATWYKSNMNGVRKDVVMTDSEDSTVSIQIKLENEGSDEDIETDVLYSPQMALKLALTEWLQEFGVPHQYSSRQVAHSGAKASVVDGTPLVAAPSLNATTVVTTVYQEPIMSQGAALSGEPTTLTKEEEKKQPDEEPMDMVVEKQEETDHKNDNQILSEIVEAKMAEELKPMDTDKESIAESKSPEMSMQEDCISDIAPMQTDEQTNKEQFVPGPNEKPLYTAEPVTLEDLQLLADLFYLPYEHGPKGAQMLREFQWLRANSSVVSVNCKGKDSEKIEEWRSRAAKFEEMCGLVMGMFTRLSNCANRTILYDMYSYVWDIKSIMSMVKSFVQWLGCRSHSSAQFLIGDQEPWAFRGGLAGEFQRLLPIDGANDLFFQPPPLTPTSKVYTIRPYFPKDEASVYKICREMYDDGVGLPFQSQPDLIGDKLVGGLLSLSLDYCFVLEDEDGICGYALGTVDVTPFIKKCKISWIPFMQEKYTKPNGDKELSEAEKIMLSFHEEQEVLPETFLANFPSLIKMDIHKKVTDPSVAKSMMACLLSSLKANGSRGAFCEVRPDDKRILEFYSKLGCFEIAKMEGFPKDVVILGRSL
The assay can be described thus: hOGA Y69F mutant glycopeptide hydrolysis, substrate competition assay. As to conditions: hOGA point mutant Y69F; competition with 4MU-GlcNAc; 37°C, pH 7.4; triplicate; read-out: Michaelis constant (KM) for hOGA Y69F.

Another assay has as its target T2, hOGA Y69Q (Homo sapiens, UniProt O60502, Y69Q).
T2 construct: GST (N); made in house; host or cells: transiently transfected HEK293 cells
T2 sequence (O60502 1-916 Y69Q): T1 sequence (O60502 1-916 Y69F) with F69Q
The assay can be described thus: hOGA Y69Q mutant glycopeptide hydrolysis, substrate competition assay. As to conditions: hOGA point mutant Y69Q; competition with 4MU-GlcNAc; 37°C, pH 7.4; triplicate; read-out: Michaelis constant (KM) for hOGA Y69Q.

A further assay deals with T3, hOGA Y69S (Homo sapiens, UniProt O60502, Y69S).
T3 construct: GST (N); made in house; host or cells: transiently transfected HEK293 cells
T3 sequence (O60502 1-916 Y69S): T1 sequence (O60502 1-916 Y69F) with F69S
The assay can be described thus: hOGA Y69S mutant glycopeptide hydrolysis, substrate competition assay. As to conditions: hOGA point mutant Y69S; competition with 4MU-GlcNAc; 37°C, pH 7.4; triplicate; read-out: Michaelis constant (KM) for hOGA Y69S.

Changes are numbered by the printed parent chain.

As to “PVSVPYS(O-GlcNAc)SAQSTS [TAB1 (Ser395) 13, 13-residue O-GlcNAc glycopeptide derived from TAB1 Ser395 site]”, the Km at hOGA Y69F was 1100 µM; at hOGA Y69Q it was 3600 µM; at hOGA Y69S, over 4000 µM.

For “p53 (Ser149) 11: 11-residue O-GlcNAc glycopeptide derived from p53 Ser149 site”, the Km with hOGA Y69F is 53 ± 5 µM; with hOGA Y69Q it was 170 ± 40 µM; in the assay with hOGA Y69S it was 290 ± 20 µM.

Take “VAHS(O-GlcNAc)GAK [hOGA (Ser405) 7, 7-residue O-GlcNAc glycopeptide derived from hOGA Ser405 site]”: the Km on hOGA Y69F was 1200 µM; at hOGA Y69Q it was over 4000 µM; at hOGA Y69S, over 4000 µM.
